Here are results for seven molecules from patent US4122184A, “Benzimidazole insecticides” (priority 1977, dated 1978).

One experiment relates to House Fly. In words: Housefly (Stomach) Test. The class given is in vivo, Musca domestica (Diptera). To be noted: 24 h. The protocol:
Ten chilled house flies are taken from the rearing cage and placed in a covered petri dish. Sugar cubes treated with 0.2 ml. of a formulation containing a specified level of the insecticide are placed in the petri dish one hour after the flies have been removed from the chill room. Controls consist of sugar cubes treated with 0.2 ml. of deionized water and cubes treated with 0.2 ml. of a formulation containing 500 ppm of malathion. Mortality counts are made 24 hours later. The same rating scale is used as before.

The next experiment has as its system Confused Flour Beetle. As to the kind of experiment: Field trial (first summer), topical. The format is in vivo. The method in brief: (§1)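 Field trial from the first summer in which 1 µl of test solution holding a set number of micrograms of benzimidazole was applied topically to larvae or adult insects. Mortality at a given route and concentration was scored on a 0–9 scale.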

For experiment [1], the system named is Picnic Beetle. In words: Field trial (first summer), topical. The format is in vivo. The following applies: .078125 μg/μl. In short, it runs like this: as §1
For experiment [2], the system named is Armyworm, P. Unipuncta. As to the kind of experiment: Field trial, stomach poison test. The class given is in vivo. The method in brief:
(§2)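 Stomach-poison feeding test on leaves taken from the infested plant and treated by atomizer spraying at 10 psi or by dipping, then air-dried. Dishes hold five or ten insects, with one or two replicates per rate; reported values average mortality on a 0 to 9 rating scale, read at 24, 48 and 72 hours.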

The subject of experiment [3] is Tarnished Plant Bug Adults. In words: Field trial, stomach poison test. The format is in vivo. The arrangement: key: mortality rating on a 0 to 9 scale. In short, it runs like this:
as §2

For experiment [4], the system named is Unidentified Green Leafhopper. In words: Field trial, stomach poison test. Also on record: key: mortality rating on a 0 to 9 scale. The class given is in vivo. In short, it runs like this:
as §2

Experiment [5] deals with Armyworm, P. Unipuncta. In words: Field trial, contact poison test. The format is in vivo. In short, it runs like this:
(§3)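 Read-out: mortality rating 0–9 (0 = 0-10 percent, 9 = 91-100 percent) at 24/48/72 h, averaged per concentration. Insects were sprayed on potted-in-water host plants using an atomizer at 10 psi, with dead insects caught on paper below.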

Experiment [6] deals with Eastern Tent Caterpillar. As to the kind of experiment: Field trial, contact poison test. The format is in vivo. The method in brief:
as §3

A further experiment concerns Elm Leaf Beetle. As to the kind of experiment: Field trial, contact poison test. The format is in vivo. In short, it runs like this:
as §3

The test system of a further experiment is Walnut Caterpillar. In words: Field trial, contact poison test. The class given is in vivo. In short, it runs like this: as §3
For experiment [7], the system named is Eastern Tent Caterpillar. In words: Field trial, topical application. The class given is in vivo. In short, it runs like this: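 1 μL benzimidazole solution of set microgram content applied topically to larvae or adults. Mortality read at 24, 48 and 72 h where applicable, rated 0-9 (0 = 0-10%, 9 = 91-100%); values are average mortality per concentration.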

The subject of experiment [8] is Two-Spotted Spider Mite (2-SSM). As to the kind of experiment: Miticide test, acute mortality, foliar spray. The class given is in vivo, Tetranychus urticae. On the procedure:
Each 5 mg. sample of technical compound preweighed at Greenfield was dissolved in 2.5 ml. of acetone and diluted with 247.5 ml. of water containing a combination of […]
The treated cuttings were stored in the greenhouse for 24 hours before evaluation under a binocular disecting microscope in the laboratory. In evaluating the results of the miticide test, each treated cutting was removed from the test tube, observed for live and dead mites at 14 × magnification, and returned immediately to the test tube. A scale of 0-9 was used as before.
The test employing two-spotted spider mites was conducted in similar fashion except that the mites were maintained on squash seedlings or squash cuttings.

The next experiment concerns Asparagus Beetles Adults. As to the kind of experiment: Field trial, stomach poison test. The class given is in vivo. The method in brief: as §2
The next experiment deals with Mosquito Larvae. In words: Mosquito larvae test (dip test). The class given is in vivo, Aedes aegypti. The following applies: 48 h. The protocol: Aedes aegypti larvae 5 days old are allowed to feed on fresh food for at least 3 hours previous to being placed on test. Larvae are then removed from the rearing pans by pouring on a 20 mesh screen, washing with deionized water, and pooling in a 6-inch white enameled sauce pan.
Twenty larvae are placed in a 1 oz. paper cup containing 25 ml. of deionized water.
Test chemicals are dissolved in a suitable solvent and pipetted under the surface of 225 ml. of deionized water in one pint wide-mouthed Mason jar test containers and stirred. A cup containing 20 larvae in 25 ml. of water is then added. […]
Results are determined 48 hours later by counting the dead and moribund larvae. […] Moribund larvae are those that are capable of limited, or poorly coordinated, locomotion in a sluggish manner.
Live larvae respond normally and actively.

Experiment [9] has as its system Picnic Beetle. As to the kind of experiment: Field trial (first summer), stomach. The class given is in vivo. The following applies: 250 ppm. On the procedure:
Leaves from the infested plant are treated with different concentrations of the test compounds, either by spraying with a DeVilbiss Special Atomizer (5004) at 10 psi or by dipping the leaves in solutions containing the compound. The leaves are then allowed to air dry.
After the leaves have dryed, they are placed in plastic petri dishes (100 × 25 mm), then the insects are counted out into each dish, five or ten insects per dish depending on the number of insects available. There are one or two replicates and usually two or three rates with each compound. Mortality results are taken at 24, 48 and 72 hours. The rating scale is 0 to 9.
During the previous summer similar field trials were conducted employing the same tests as heretofore but with some additional species of insects not included in the later tests. The results listed below are for tests in which an insect mortality was established by a given application route and at a given concentration in a particular test. The same 0 - 9 scoring system is used as is the designation of compounds by alphabetical symbols.

Another experiment relates to Differential Grasshopper. In words: Field trial (first summer), contact. The class given is in vivo. The following applies: 250 ppm.
The next experiment has as its system Meadow Grasshopper. In words: Field trial (first summer), contact. To be noted: 125 ppm. The format is in vivo.

Several values for one entry are separate records, joined by “and”; a condition that tells them apart may be missing. Identical values can stand only once.

For “mixture of benzyl 2,6-bis(trifluoromethyl)-4-nitro-1-benzimidazolecarboxylate and benzyl 2,5-bis(trifluoromethyl)-7-nitro-1-benzimidazolecarboxylate”, the figures for the mortality rating in the experiment on House Fly (250 ppm), in the experiment on House Fly (500 ppm) and in the experiment on House Fly (1000 ppm) were 0 (0-10), 4 (41-50) and 9 (91-100), respectively. For the same molecule, the insect mortality rating in the experiment on Confused Flour Beetle (.078125 μg/μl) and in the experiment with Picnic Beetle [1] was 9 (91-100 percent mortality) throughout.
Consider “mixture of N,N-dimethyl-4-nitro-2,6-bis(trifluoromethyl)thio-1-benzimidazolecarboxamide and N,N-dimethyl-7-nitro-2,5-bis(trifluoromethyl)thio-1-benzimidazolecarboxamide [P]”, for which the mortality rating is 0 (0-10) in the experiment on House Fly (50 ppm), 3 (31-40) in the experiment with House Fly (100 ppm), 7 (71-80) with House Fly (250 ppm) and 9 (91-100) in the experiment on House Fly (500 ppm). The insect mortality rating with Picnic Beetle [1] is reported as 9 (91-100 percent mortality).
Turning to `CC(C)OC(=O)n1c(C(F)(F)F)nc2c([N+](=O)[O-])cc(C(F)(F)F)cc21` [I, isopropyl 2,6-bis(trifluoromethyl)-4-nitro-1-benzimidazolecarboxylate], the average mortality rating in the experiment with Armyworm, P. Unipuncta [2] (125 ppm) came to 2; with Armyworm, P. Unipuncta [2] (250 ppm) it was 4; in the experiment on Armyworm, P. Unipuncta [2] (500 ppm) it was 2; in experiment [3] (10 ppm), 3; in experiment [3] (25 ppm) it was 4; in experiment [3] (50 ppm), 2. Besides, the average mortality rating in [4] (10 ppm) is given as 2; in experiment [4] (25 ppm), 6; in [4] (50 ppm), 7; with Armyworm, P. Unipuncta [5] (125 ppm) it was 0 (0-10 percent); with Armyworm, P. Unipuncta [5] (250 ppm), 0 (0-10 percent); in the experiment with Armyworm, P. Unipuncta [5] (500 ppm), 0 (0-10 percent). Also, the average mortality rating was 0 (0-10 percent) with Eastern Tent Caterpillar [6] (50 ppm); 1 with Eastern Tent Caterpillar [6] (100 ppm); 3 with Eastern Tent Caterpillar [6] (250 ppm); 6 in the experiment on Eastern Tent Caterpillar [6] (500 ppm); 5 in the experiment with Eastern Tent Caterpillar [6] (1000 ppm); 1 in the experiment on Elm Leaf Beetle (250 ppm). For the same molecule, the average mortality rating is on record as 1 with Elm Leaf Beetle (500 ppm); 1 with Elm Leaf Beetle (1000 ppm); 0 (0-10 percent) in the experiment with Walnut Caterpillar (25 ppm); 1 in the experiment with Walnut Caterpillar (50 ppm); 2 in the experiment with Walnut Caterpillar (100 ppm); 3 in the experiment with Walnut Caterpillar (250 ppm). For the same molecule, the average mortality rating is 0 (0-10 percent) in the experiment with Eastern Tent Caterpillar [7] (0.3 μg/μl), 1 in the experiment with Eastern Tent Caterpillar [7] (0.6 μg/μl) and 2 in the experiment on Eastern Tent Caterpillar [7] (1.2 μg/μl). Besides, the acute mortality rating in experiment [8] (6.25 ppm) came out at 3; in experiment [8] (12.5 ppm), 2; in experiment [8] (25 ppm), 8; in experiment [8] (50 ppm) it was 8; in experiment [8] (100 ppm) it was 8.
Take “mixture of methyl 2,6-bis(trifluoromethyl)-4-nitro-1-benzimidazolecarboxylate and methyl 2,5-bis(trifluoromethyl)-7-nitro-1-benzimidazolecarboxylate”: the mortality rating is listed as 2 (21-30) in the experiment on House Fly (250 ppm), 5.5 in the experiment on House Fly (500 ppm) and 8.5 in the experiment with House Fly (1000 ppm). Besides, the average mortality rating in the experiment with Asparagus Beetles Adults (5 ppm) was 5; in the experiment with Asparagus Beetles Adults (10 ppm) it was 5; in the experiment with Asparagus Beetles Adults (25 ppm), 9 (91-100 percent mortality); in [3] (25 ppm), 3; in [3] (50 ppm), 7 and 4; in experiment [4] (10 ppm), 5. Moreover, the average mortality rating in experiment [4] (25 ppm) is on record as 4; in experiment [4] (50 ppm) it was 6; in the experiment on Mosquito Larvae (0.025 ppm), 0 (0-10%); in the experiment on Mosquito Larvae (0.05 ppm) it was 0 (0-10%); in the experiment on Mosquito Larvae (0.1 ppm), 4 (45-50%). Further, the insect mortality rating in the experiment with Picnic Beetle [1] and in the experiment with Picnic Beetle [9] was 9 (91-100 percent mortality) throughout.
In the case of “mixture of phenyl 2,6-bis(trifluoromethyl)-4-nitro-1-benzimidazolecarboxylate and phenyl 2,5-bis(trifluoromethyl)-1-benzimidazolecarboxylate”, the mortality rating was 0 (0-10) with House Fly (100 ppm) and 9 (91-100) in the experiment on House Fly (1000 ppm). Moreover, the average mortality rating in experiment [4] (10 ppm) is reported as 0 (0-10 percent); in experiment [4] (25 ppm), 1; in [4] (50 ppm) it was 9 (91-100 percent mortality). In the experiment on Confused Flour Beetle (.15625 μg/μl), the insect mortality rating is listed as 9 (91-100 percent mortality).
With `CCCCCCOC(=O)n1c(C(F)(F)F)nc2c([N+](=O)[O-])cc(C(F)(F)F)cc21` [E, n-hexyl 2,6-bis(trifluoromethyl)-4-nitro-1-benzimidazolecarboxylate], the average mortality rating with Asparagus Beetles Adults (5 ppm) was 3; in the experiment on Asparagus Beetles Adults (10 ppm), 5; in the experiment with Asparagus Beetles Adults (25 ppm) it was 9 (91-100 percent mortality); in [3] (10 ppm), 1; in experiment [3] (25 ppm), 2; in experiment [3] (50 ppm), 3. For the same molecule, the average mortality rating is given as 4 in experiment [4] (10 ppm); 7 in [4] (25 ppm); 7 in [4] (50 ppm); 0 (0-10%) in the experiment on Mosquito Larvae (0.010 ppm); 0 (0-10%) in the experiment with Mosquito Larvae (0.025 ppm); 1 (15-20%) with Mosquito Larvae (0.05 ppm). In addition, the average mortality rating in the experiment on Mosquito Larvae (0.1 ppm) is listed as 8 (85-90%). The acute mortality rating is on record as 3 in [8] (6.25 ppm); 2 in experiment [8] (12.5 ppm); 5 in [8] (25 ppm); 9 (91-100 percent mortality) in experiment [8] (50 ppm); 9 (91-100 percent mortality) in [8] (100 ppm). Moreover, the insect mortality rating in the experiment with Confused Flour Beetle (.3125 μg/μl), in the experiment on Picnic Beetle [1], with Picnic Beetle [9], in the experiment with Differential Grasshopper and in the experiment with Meadow Grasshopper was 9 (91-100 percent mortality) in each case.
For `O=[N+]([O-])c1cc(C(F)(F)F)cc2[nH]c(C(F)(F)Cl)nc12` [L, 2-chlorodifluoromethyl-4-nitro-6-trifluoromethylbenzimidazole], in the experiment with House Fly (50 ppm), the mortality rating result is recorded as “.5”. Also, the average mortality rating in [3] (10 ppm) is 0 (0-10 percent); in experiment [3] (25 ppm) it was 4; in experiment [3] (50 ppm) it was 5.
